From patent publication US11260042B2, “Pharmaceutical combination for the treatment of cancer” (ABILITY PHARMACEUTICALS S.L., priority 2017, dated 2022)
Where two headings read alike, the source gives them in different places.

Legend:
[1] = tested on: A549 (human lung carcinoma) cell line; test: Cell viability (MTT) of ABTL0812 in combination with docetaxel in lung cancer; type: cell-based; conditions: Homo sapiens, 72 h, A549, three days, FBS 0.5%, single agent
Description: Methods: A549 cells were incubated with increasing concentrations of ABTL0812 (3-300 μM), docetaxel (0.01-100 μM), or a combination of both (subIC50, i.e., 20 μM fixed concentration of ABTL812 and 0.01-100 μM docetaxel) for three days (FBS 0.5%). […] In the denominator, (Dx)1 is for D1“alone” that inhibits a system x %, and (Dx)2 is for D2“alone” that inhibits a system x %.

[2] = tested on: A549 human lung adenocarcinoma xenograft; type: in vivo; conditions: ABTL0812 30 mg/kg/day oral 5 times a week; docetaxel 5 mg/kg i.p. once a week
Description: Methods: Mice were injected with 5×10^6 A549 cells in each flank to induce tumor formation. […] ABTL0812 was administered by the oral route at 30 mg/kg/day, 5 times a week. Docetaxel 5 mg/kg was administered intra-peritoneally once a week (Coxon et al. 2012). Tumor volume and body weight were monitorized 3 times a week.

H157 cells = test: Cell viability (MTT) of ABTL0812 in combination with paclitaxel, H157; type: cell-based, human; conditions: Homo sapiens, NCI-H157; H157, 48 hours, 0.1% FBS, single agent
Description: (§1) Methods: A549 cells were incubated with increasing concentrations of ABTL0812 (3-300 μM), paclitaxel (0.003-1 μM), or a combination of both using subIC50 fixed concentration of ABTL0812 and 0.003-1 μM paclitaxel for 72 hours in DMEM with 0.1% FBS. H157, H1957 and HTB-812 cells were incubated with increasing concentrations of paclitaxel (0.001-10 μM) alone and in combination with subIC50 fixed concentration of ABTL0812 for 48 hours in DMEM with 0.1% FBS. Cell viability was evaluated in all cases by MTT assay and IC50's were calculated for paclitaxel and the combination. The concentrations of the combinations for the different cell lines were:
(§2) Finally, the Combination Index (CI), as described in the previous section, was calculated for the values of paclitaxel IC50.

H1957 cells = test: Cell viability (MTT) of ABTL0812 in combination with paclitaxel, H1957; type: cell-based, human; conditions: Homo sapiens; H1957, 48 hours, 0.1% FBS, single agent
Description: as §1, §2

HTB-812 cells = test: Cell viability (MTT) of ABTL0812 in combination with paclitaxel, HTB-812; type: cell-based, human; conditions: Homo sapiens; HTB-812, 48 hours, 0.1% FBS, single agent
Description: as §1, §2

[3] = tested on: MDB-DA-231 (human triple negative breast cancer); test: Cell viability (MTT) of ABTL0812 alone or with paclitaxel in breast cancer; type: cell-based; conditions: Homo sapiens; MDB-DA-231, 48h, 0.5% FBS, MTT, single agent
Description: Methods: MDB-DA-231 cells were seeded in 24-well plates together with increasing concentration of paclitaxel (1-100 nM) in the presence of 5, 10 and 20 μM of ABTL0812 (all doses below to an IC25) for 48h (0.5% FBS). Cell viability was studied by the MTT assay and several parameters were determined to evaluate a possible synergism. First the IC50 for each drug alone or the combination was calculated.

[4] = type: in vivo
Description: Methods: Forty-five female CD-1 mice were distributed by means of the body weight stratification method into nine experimental groups (A-I) (5 animals for group) that differed in the treatment or in the day on which the reference items (paclitaxel and carboplatin) were administered.
The table below summarizes the treatment groups. Please note that the same administration schedule and doses were administered as in the previous efficacy studies.
The safety assessment relied on observed mortality, local and systemic clinical signs, body weight and food consumption recorded throughout the whole study. In addition, clinical pathology determinations (biochemistry and hematology) were performed before sacrifice in all animals. At the end of the observation period (one day after the last administration), all surviving animals were sacrificed and subjected to a gross necropsy. Moreover, the safety assessment was also based on the weight of selected target organs collected at sacrifice.

[5] = tested on: MiaPaca2 (human pancreatic carcinoma); test: Cell viability (MTT) of ABTL0812 alone or with gemcitabine in pancreatic cancer; type: cell-based; conditions: Homo sapiens, MIA PaCa-2; MiaPaca2, 72h, 0.5% FBS, MTT, single agent
Description: Methods: MiaPaca2 cells were seeded in 24-well plates together with gemcitabine (0.01-100 μM), ABTL812 (3-300 μM), or a combination of both (subIC50, i.e., 25 μM fixed concentration of ABTL0812 with 0.01-100 μM gemcitabine) and left in the incubator for 72h (0.5% FBS). Cell viability was studied by the MTT assay and several parameters were determined to evaluate a possible synergism. First the IC50 for each drug alone or the combination was calculated. Then, synergism (CI) was calculated as described above.

[6] = tested on: MiaPaca2 human pancreatic cancer xenograft; test: Human pancreatic xenograft (MiaPaca-2), gemcitabine and Nab-paclitaxel/gemcitabine; type: in vivo, Athymic Nude-Foxn1nu female mice; conditions: ABTL0812 120 mg/kg oral 5 times a week; gemcitabine 60 mg/kg, Nab-Paclitaxel 5 mg/kg i.p. 2 times a week (suboptimal chemotherapy dose)
Description: It is important to change the site of injection to avoid intestinal necrosis and keep Nab-Paclitaxel and gemcitabine injections as far as possible one from the other in mice abdomen. • Gemcitabine+ABTL0812 (n=10): treated orally with 120 mg/kg of ABTL0812 in 200 μl of distilled water+5% glycerol, 5 times a week and with 60 mg/kg of gemcitabine administered i.p in 100 μl of sterile water, 2 times a week. ABTL0812 was always administered before chemotherapy with the aim of reducing the stress derived from the i.p. injection, that is normally applied as the last administration. • Gemcitabine+Nab-Paclitaxel+ABTL0812 (n=8): treated orally with 120 mg/kg of ABTL0812 in 200 μl of distilled water+5% glycerol, 5 times a week, with 60 mg/kg of gemcitabine administered i.p. in 100 μl of sterile water, 2 times a week and with 5 mg/kg of Nab-Paclitaxel administered i.p. in 230 μl of 0.9% NaCl solution 2 times a week. As in the gemcitabine+Nab-Paclitaxel group, injections where administered in separated areas of the abdomen. […]
Treatment efficacy was assessed by measuring tumor volume three days a week. Additionally, total body weight was monitored three days a week to test the toxicity associated with the treatments in addition to visual examination of signs indicative of clinicopathological symptoms. […]

[7] = tested on: LA1-5S neuroblastoma cell line; test: Cell viability (crystal violet) of ABTL0812 with retinoic acid, LA1-5S; conditions: 24h
Description: (§3) Methods: LA1-5S and SK-N-BE(2) cells were incubated with a subIC50 fixed concentration of ABTL0812 (30 μM), increasing concentrations of 10 μM, 20 μM and 30 μM of retinoic acid or a combination of both. […] Cells were treated for 24h in IMDM with 0.5% FBS. Cell viability was evaluated in all cases by crystal violet assay. Different doses were assessed in six replicates and the results shown are the average of two independent experiments. Statistical analyses were performed according to the T-Test principle with GraphPad Prism® 5.0 software (* p<0.05; ** p<0.01; *** p<0.001)..

[8] = tested on: SK-N-BE(2) human neuroblastoma cell line; test: Cell viability (crystal violet) of ABTL0812 with retinoic acid, SK-N-BE(2); conditions: 24h
Description: as §3

[9] = tested on: SH-SY5Y human neuroblastoma xenograft; type: in vivo, Nu/nu female mice
Description: Methods: Immunodeficient athymic NMRI-Foxn1^nu/Foxn1^nu nude mice were subcutaneously injected with SH-SY5Y cells. This cell line was genetically modified to express luciferase, which would allow the in vivo study not only of tumor size, but also of metastasis formation. When tumors reached an average volume of 80 mm^3, mice were randomly distributed into different treatment groups. ABTL0812 was administered orally at 120 mg/kg daily. In parallel we used cisplatin, a drug included in the chemotherapy induction phase for the treatment of neuroblastoma. Cisplatin was administered at 2 mg/kg i.p. twice a week (Wang et al. 2010). Additionally, we studied the effect of combining ABTL0812 with cisplatin at the indicated doses.
C. Metastasis formation. In order to investigate the effect of ABTL0812 in metastasis formation we used a SH-SY5Y cell line transduced with a luciferase reporter vector. As described above, mice bearing xenograft tumors derived from this cell line were treated with ABTL0812, cisplatin or the combination of both drugs. After ten days of treatment animals were sacrificed and metastasis were assessed ex vivo by monitoring luciferase-expressing cells in lung and liver.

For `CC(=O)O[C@@]12CO[C@@H]1C[C@H](O)[C@@]1(C)C(=O)[C@H](O)C3=C(C)[C@@H](OC(=O)[C@H](O)[C@@H](NC(=O)OC(C)(C)C)c4ccccc4)C[C@@](O)([C@@H](OC(=O)c4ccccc4)[C@H]21)C3(C)C` [Docetaxel, reference compound], the IC50 [1] was 1.7 µM and the tumor volume [2] was “similarly reduced tumor volume”.
Compound `CC(=O)O[C@H]1C(=O)[C@@]2(C)[C@H]([C@H](OC(=O)c3ccccc3)[C@]3(O)C[C@H](OC(=O)[C@H](O)[C@@H](NC(=O)c4ccccc4)c4ccccc4)C(C)=C1C3(C)C)[C@]1(OC(C)=O)CO[C@@H]1C[C@@H]2O` [Paclitaxel] has an IC50 (H157 cells) of 4.19 µM, an IC50 (H1957 cells) of 3.68 µM and an IC50 (HTB-812 cells) of 2.71 µM. The IC50 [3] was 0.0087 µM, the “Biochemistry Creat” value ([4]; mouse, in vivo) was 9.74 µmol/L and the “Biochemistry Triglyc” value ([4]; mouse, in vivo) was 1.31 mmol/L. The “Biochemistry Urea” value ([4]; mouse, in vivo) was 9.50 mmol/L, the “Body Weight Gain D 8-11” value ([4]; mouse, in vivo) was 0.442 g and the “Hematology PLT” value ([4]; mouse, in vivo) was 1378 ×10^3/μL. The “Hematology RBC” value ([4]; mouse, in vivo) was 9.59 ×10^6/μL and the “Hematology WBC” value ([4]; mouse, in vivo) was 6.28 ×10^3/μL.
In the case of `Nc1ccn([C@@H]2O[C@H](CO)[C@@H](O)C2(F)F)c(=O)n1` [Gemcitabine, reference compound], the IC50 [5] is reported as 10.2 µM and the tumor volume [6] is reported as “do not show significant difference in tumor volume compared with vehicle group”.
With `CC1=C(/C=C/C(C)=C/C=C/C(C)=C/C(=O)O)C(C)(C)CCC1` [retinoic acid] the “cytotoxicity” value ([7]; LA1-5S, 30 μM ABTL0812, retinoic acid 10-30 μM) was “even lower”, the cell viability ([7]; LAI-5S cells, combination with low concentration of ABTL0812) was 82.8% and the cell viability ([8]; SK-N-BE(2) cells, combination with low concentration of ABTL0812) was 70.4%. For the same compound, the “cytotoxicity” value ([8]; SK-N-BE(2), 30 μM ABTL0812, retinoic acid 10-30 μM) was “even lower”.
In the case of `N.N.O=C([O-])C1(C(=O)[O-])CCC1.[Pt+2]` [Carboplatin], the “Body Weight Gain D 1-4” value ([4]; ABTL0812 120 mg/kg p.o. days 2-6, 9-13, paclitaxel 15, carboplatin 50 mg/kg i.p. D 2/9) is reported as -0.626 g, the “Biochemistry Creat” value ([4]; PTX/CP on D 2/9) is reported as 8.83 µmol/L and the “Biochemistry Triglyc” value ([4]; PTX/CP on D 2/9) is reported as 1.35 mmol/L. For the same compound, the “Biochemistry Urea” value ([4]; PTX/CP on D 2/9) was 9.50 mmol/L, the “Body Weight Gain D 8-11” value ([4]; PTX/CP on D 2/9) was -0.450 g and the “Hematology PLT” value ([4]; PTX/CP on D 2/9) was 790 ×10^3/μL. For the same compound, the “Hematology RBC” value ([4]; PTX/CP on D 2/9) was 8.40 ×10^6/μL and the “Hematology WBC” value ([4]; PTX/CP on D 2/9) was 7.09 ×10^3/μL.
With `N.N.[Cl][Pt][Cl]` [Cisplatin, reference compound] the Hematocrit ([9]; mouse, in vivo) was 37.3 ± 2.7%, the RBC ([9]; mouse, in vivo) was 6.8 ± 0.9 ×10^6/μL and the WBC ([9]; mouse, in vivo) was 3.0 ± 0.6 ×10^3/μL. The “hematological safety” value ([9]; mouse, in vivo) was “induced anemia and reduced white blood cell count” and the “metastasis formation in lung and liver” value ([9]; ten days of treatment, luciferase-expressing cells ex vivo) was “no significant effect in inhibiting metastasis formation”.
